Measurements as given in patent US20070142392A1, “Uses of rifamycins” (ActivBiotics, Inc., priority 2005, published 2007).
Converted amounts (≈) assume the structure as drawn.

How the values were obtained:
Assay type in all cases: cell-based
S. aureus = assay: MIC values, S. aureus (Tables 1-4)
E. faecalis = assay: MIC values, E. faecalis (Tables 1-4)
S. pneumo. = assay: MIC values, S. pneumo. (Tables 1-4)
H. flu = test system: H. flu
E. coli = assay: MIC values, E. coli (Tables 1-4)

SMILES | MIC S. aureus (S. aureus) [µg/mL] | MIC E. faecalis (E. faecalis) [µg/mL] | MIC S. pneumo. (S. pneumo.) [µg/mL] | MIC H. flu (H. flu) [µg/mL] | MIC E. coli (E. coli) [µg/mL]
CCOC(=O)NCC1CCN(c2cc(O)c3nc4c5c6c7c(C)c(O)c5c(=O)c(c-4oc3c2)NC(=O)/C(C)=C\C=C\[C@H](C)[C@H](O)[C@@H](C)[C@@H](O)[C@@H](C)[C@H](OC(C)=O)[C@H](C)[C@@H](OC)/C=C/O[C@@](C)(O7)C6=O)CC1 [Compound 51] | 0.06 (≈ 0.0609 µM) | 8 (≈ 8.12 µM) | 0.002 (≈ 0.00203 µM) | 0.25 (≈ 0.254 µM) | 8 (≈ 8.12 µM)
CO[C@H]1/C=C/O[C@@]2(C)Oc3c(C)c(O)c4c(=O)c(c5oc6cc(N7CCC(NC(=O)OC(C)(C)C)CC7)cc(O)c6nc-5c4c3C2=O)NC(=O)/C(C)=C\C=C\[C@H](C)[C@H](O)[C@@H](C)[C@@H](O)[C@@H](C)[C@H](O)[C@@H]1C [Compound 52] | 0.015 (≈ 0.0157 µM) | 4 (≈ 4.18 µM) | 0.00025 (≈ 0.000261 µM) | 0.12 (≈ 0.125 µM) | >8
COC1C=COC2(C)Oc3c(C)c(O)c4c(=O)c(c5oc6cc(N7CC8C(C7)C8N(C)C)cc(O)c6nc-5c4c3C2=O)NC(=O)C(C)=CC=CC(C)C(O)C(C)C(O)C(C)C(OC(C)=O)C1C (stereo not drawn) [Compound 53] | 0.06 (≈ 0.0649 µM) | 4 (≈ 4.32 µM) | 0.008 (≈ 0.00865 µM) | 2 (≈ 2.16 µM) | >8
COC1C=COC2(C)Oc3c(C)c(O)c4c(=O)c(c5oc6cc(N7CC8C(C7)C8N(C)C)cc(O)c6nc-5c4c3C2=O)NC(=O)C(C)=CC=CC(C)C(O)C(C)C(O)C(C)C(O)C1C (stereo not drawn) [Compound 54] | 0.008 (≈ 0.00906 µM) | 2 (≈ 2.26 µM) | 0.0005 (≈ 0.000566 µM) | 0.25 (≈ 0.283 µM) | >8
CO[C@H]1/C=C/O[C@@]2(C)Oc3c(C)c(O)c4c(=O)c(c5oc6cc(N7CCC(CNC(C)=O)CC7)cc(O)c6nc-5c4c3C2=O)NC(=O)/C(C)=C\C=C\[C@H](C)[C@H](O)[C@@H](C)[C@@H](O)[C@@H](C)[C@H](OC(C)=O)[C@@H]1C [Compound 55] | 0.008 (≈ 0.00838 µM) | 1 (≈ 1.05 µM) | 0.00025 (≈ 0.000262 µM) | 0.5 (≈ 0.524 µM) | 8 (≈ 8.38 µM)
CO[C@H]1/C=C/O[C@@]2(C)Oc3c(C)c(O)c4c(=O)c(c5oc6cc(N7CCC(CNC(C)=O)CC7)cc(O)c6nc-5c4c3C2=O)NC(=O)/C(C)=C\C=C\[C@H](C)[C@H](O)[C@@H](C)[C@@H](O)[C@@H](C)[C@H](O)[C@@H]1C [Compound 56] | 0.004 (≈ 0.00438 µM) | 0.12 (≈ 0.131 µM) | 0.001 (≈ 0.0011 µM) | 0.25 (≈ 0.274 µM) | 8 (≈ 8.76 µM)
CO[C@H]1/C=C/O[C@@]2(C)Oc3c(C)c(O)c4c(=O)c(c5oc6cc(N7CCC(c8ccccc8)CC7)cc(O)c6nc-5c4c3C2=O)NC(=O)/C(C)=C\C=C\[C@H](C)[C@H](O)[C@@H](C)[C@@H](O)[C@@H](C)[C@H](OC(C)=O)[C@@H]1C [Compound 57] | 0.008 (≈ 0.00833 µM) | 2 (≈ 2.08 µM) | 0.0005 (≈ 0.000521 µM) | 0.5 (≈ 0.521 µM) | 8 (≈ 8.33 µM)
CO[C@H]1/C=C/O[C@@]2(C)Oc3c(C)c(O)c4c(=O)c(c5oc6cc(N7C[C@@H]8CCCN(C)[C@@H]8C7)cc(O)c6nc-5c4c3C2=O)NC(=O)/C(C)=C\C=C\[C@H](C)[C@H](O)[C@@H](C)[C@@H](O)[C@@H](C)[C@H](OC(C)=O)[C@@H]1C [Compound 58] | 0.03 (≈ 0.0319 µM) | 1 (≈ 1.06 µM) | 0.004 (≈ 0.00426 µM) | 0.25 (≈ 0.266 µM) | >8
CO[C@H]1/C=C/O[C@@]2(C)Oc3c(C)c(O)c4c(=O)c(c5oc6cc(N7C[C@@H]8CCCN(C)[C@@H]8C7)cc(O)c6nc-5c4c3C2=O)NC(=O)/C(C)=C\C=C\[C@H](C)[C@H](O)[C@@H](C)[C@@H](O)[C@@H](C)[C@H](O)[C@@H]1C [Compound 59] | 0.004 (≈ 0.00446 µM) | 0.06 (≈ 0.0669 µM) | 0.001 (≈ 0.00111 µM) | 0.12 (≈ 0.134 µM) | 4 (≈ 4.46 µM)
